Laboratory results: ChEMBL document CHEMBL3885861, “Open TG-GATES”

Organism: Rattus norvegicus
Assay: Open TG-GATES - Regimen: Daily Repeat
Type: toxicity, organism-based, Sprague-Dawley
Parameters: regimen Daily Repeat, gender Male, age 6 weeks
Conditions: in vivo, po, 0 mg/kg, route gavage, dose level Control; for APTT / Bas / Eos / Fbg / Hb / Ht / Lym / MCHC / MCV / Mono / Neu / PT / Plat / RBC / Ret / WBC: tissue Blood
[1] = 72 h, tissue Kidney, time 3 day
[2] = 72 h, tissue Plasma, time 3 day

CS(=O)(=O)Nc1ccc([N+](=O)[O-])cc1Oc1ccccc1 [NIMESULIDE]
TERMINAL_BW (72 h, time 3 day): 220.1 g
APTT (72 h, time 3 day): 17.3 s
Bas (72 h, time 3 day): 0%
Eos (72 h, time 3 day): 1%
Fbg (72 h, time 3 day): 199.4 mg/dL
Hb (72 h, time 3 day): 13.5 g/dL
Ht (72 h, time 3 day): 39.9%
Lym (72 h, time 3 day): 78%
MCHC (72 h, time 3 day): 34%
MCV (72 h, time 3 day): 62.8 fL
Mono (72 h, time 3 day): 6.2%
Neu (72 h, time 3 day): 14.8%
PT (72 h, time 3 day): 11.7 s
Plat (72 h, time 3 day): 127.5 x10_4/uL
RBC (72 h, time 3 day): 635.6 x10_4/ul
Ret (72 h, time 3 day): 9.2%
WBC (72 h, time 3 day): 97.8 x10_2/uL
KIDNEY_L [1]: 1 g
KIDNEY_R [1]: 1 g
KIDNEY_TOTAL [1]: 2 g
LIVER (72 h, tissue Liver, time 3 day): 10.6 g
ALP [2]: 996 IU/L
ALT [2]: 36.8 IU/L
AST [2]: 63.6 IU/L
BUN [2]: 17.6 mg/dL
CRE [2]: 0.6 mg/dL
Ca [2]: 10.7 mg/dL
Cl [2]: 105 meq/L
DBIL [2]: 0.064 mg/dL
GLC [2]: 203 mg/dL
IP [2]: 7.5 mg/dL
K [2]: 4.7 meq/L
LDH [2]: 81.6 IU/L
Na [2]: 139.4 meq/L
PL [2]: 132.2 mg/dL
RALB [2]: 4 g/dL
TBIL [2]: 0.3 mg/dL
TC [2]: 69 mg/dL
TG [2]: 72.4 mg/dL
TP [2]: 5.5 g/dL
gamma-GTP [2]: 1.4 IU/L
TERMINAL_BW ([…], time 7 day): 249.3 g
TERMINAL_BW ([…], time 14 day): 309.7 g
TERMINAL_BW ([…], time 28 day): 405 g
APTT ([…], time 7 day): 18.3 s
Bas ([…], time 7 day): 0%
Eos ([…], time 7 day): 1%
Fbg ([…], time 7 day): 220 mg/dL
Hb ([…], time 7 day): 14.2 g/dL
Ht ([…], time 7 day): 41.6%
Lym ([…], time 7 day): 77.2%
MCHC ([…], time 7 day): 34.1%
MCV ([…], time 7 day): 64.8 fL
Mono ([…], time 7 day): 9.4%
Neu ([…], time 7 day): 12.6%
PT ([…], time 7 day): 11.3 s
Plat ([…], time 7 day): 117.6 x10_4/uL
RBC ([…], time 7 day): 642.4 x10_4/ul
Ret ([…], time 7 day): 7.2%
WBC ([…], time 7 day): 134.4 x10_2/uL
APTT ([…], time 14 day): 17.4 s
Bas ([…], time 14 day): 0%
Eos ([…], time 14 day): 1.2%
Fbg ([…], time 14 day): 234.2 mg/dL
Hb ([…], time 14 day): 14.7 g/dL
Ht ([…], time 14 day): 43.2%
Lym ([…], time 14 day): 79%
MCHC ([…], time 14 day): 34%
MCV ([…], time 14 day): 62.7 fL
Mono ([…], time 14 day): 6.2%
Neu ([…], time 14 day): 13.8%
PT ([…], time 14 day): 11.8 s
Plat ([…], time 14 day): 118.2 x10_4/uL
RBC ([…], time 14 day): 689.8 x10_4/ul
Ret ([…], time 14 day): 6.7%
WBC ([…], time 14 day): 118 x10_2/uL
APTT ([…], time 28 day): 17.4 s
Bas ([…], time 28 day): 0%
Eos ([…], time 28 day): 1.4%
Fbg ([…], time 28 day): 213.8 mg/dL
Hb ([…], time 28 day): 15.1 g/dL
Ht ([…], time 28 day): 44.6%
